PMC9497102, “Thiosemicarbazone Derivatives Developed to Overcome COTI-2 Resistance” (Cancers, 2022)

Columns and labels:
[1] = system: SW480 cells; assay: MTT viability assay in combination with copper chelator TTM; format: cell-based, human; conditions: TTM 1 µM and 5 µM, 72 h
Protocol: For the cytotoxicity, cell viability, and proliferation studies, the 3-(4,5-dimethylthiazol-2-yl)-2,5-diphenyltetrazolium bromide (MTT) assay was utilized. Cells were seeded in 96-well plates at a density of 2 × 10^4 cells/well, with the exception of SW480/Tria, which was used at a density of 3 × 10^4 cells/well. After 24 h of recovery, cells were treated with the indicated concentration of drugs. For the drug combination experiments, verapamil and cyclosporine A (CSA) were used as […] modulators, and tetrathiomolybdate (TTM) was used as a copper chelator. The TSCs were dissolved in DMSO followed by subsequent dilutions in the medium in order to maintain a final DMSO concentration of <1%. After 72 h, the treatment solution was removed and replaced with 100 µL of MTT solution (EZ4U, Biomedica, Vienna, Austria), which was diluted 1:10 in the growth medium. A TECAN Infinite 200 Pro plate reader was used to measure the absorbance of the solution after 2–3 h incubation at 5% CO2 in an incubator at 37 °C. The anticancer activity was determined with GraphPad Prism software and indicated as IC50 values (half maximum inhibitory concentration).

[2] = Iron(III) complex formation, UV-vis spectrophotometric titrations; format: physicochemical; conditions: for pFe(III)*: Fe(III) hydroxido species also considered as unbound metal, cFe = 1 μM; for pFe(III)* / pFe(III): cL = 10 μM, pH = 7.40; for pFe(III): –log[free Fe(III)] calculated at cFe = 1 μM
Protocol: (§1) The UV-vis spectra were recorded using an Agilent Cary 8454 diode array spectrophotometer in the 200 to 950 nm window, and the path length was varied between 1 and 5 cm, depending on the solubility (thus the applicable concentration). For the spectrophotometric titrations, the same instruments (Metrohm 665 Dosimat burette, Orion 710A pH-meter, Metrohm combined pH glass electrode) and experimental setup (ionic strength: 0.10 M (KCl); titrant: 0.10 M carbonate-free KOH solution in 30% (v/v) DMSO/H2O; samples: prepared in 30% (v/v) DMSO/H2O; calibration: method of Irving et al.; pH range: 1.0 to 13.5; and sample volume: 10 cm^3) were used as in our previous work. Argon overpressure was used for the Fe(II)-containing samples when the Fe(II) stock solution was added to the samples in tightly closed titration vessels, which were previously completely deoxygenated (for 20 min). Measurements were taken with ligands (10–80 μM, depending on solubility) in the presence of 1, 0.5, and 0.3 equiv. of Cu(II), Fe(II), and Fe(III) ions. Equilibrium constants, such as the proton dissociation constants (pKa) of the ligands, the overall stability constants (logβ) of the metal complexes, and the UV-vis spectra of the individual ligand or complex species were computed using the program PSEQUAD [18], as was the case in our previous works.

[3] = Cyclic voltammetry of copper(II)–ligand (1:1) systems; format: physicochemical; conditions: cL = cCu(II) = 1 mM, pH 7.40, 25 °C, 90% (v/v) DMSO/H2O, 0.01 V/s scan rate
Protocol: Cyclic voltammograms for the Fe(III) and Cu(II) complexes were recorded in 90% (v/v) DMSO/water solution containing 1 mM ligand and 0.5 mM FeCl3 or 1 mM CuCl2 using a conventional three-electrode system under nitrogen atmosphere and a PC-Controlled Electrochemical Measurement System (EF 451). The ionic strength was 0.10 M, adjusted by TBAN. Samples were purged for 15 min with Ar before recording the cyclic voltammograms. Platinum electrodes were used as the working and auxiliary electrodes, and Ag/AgCl (3 M KCl) was applied as the reference electrode. The electrochemical potentials were converted into the normal hydrogen electrode (NHE) scale by adding 0.222 V. The instrument was calibrated with an aqueous solution of K3[Fe(CN)6] (E1/2 = +0.386 V vs. NHE). Redox potentials were obtained at different scan rates (5–25 mV/s) in the range of −0.8 to +0.1 V. The dependence of the peak current values of the square root of the scan rates is shown in Figure S5 for the iron and copper complexes of COTI-NMeCy.

[4] = Copper(II) complex formation, UV-vis titrations and EDTA competition; format: physicochemical; conditions: for pCu: calculated at cM = 1 μM, cL = 10 μM, pH = 7.40; for logβ5.9′ [CuL]^+: conditional stability constant, EDTA competition at pH = 5.90; for logβ [CuL]^+: β = β’ × αH, [H+] = 10^–5.90 M
Protocol: as §1
The conditional stability constants (β’) of the Cu(II) complexes were calculated from competition reactions with EDTA at pH = 5.9 using MES (50 mM) when the metal:ligand ratio was 1:1 (clig = cCu between 10 and 80 μM). Individual samples were prepared in which the ligand:EDTA ratio was variable between 1:0 and 1:50. After a 3 h incubation period, UV-vis spectra were collected. The calculation of the β’ (CuL) values was performed following the same method as that in our previous work using the logβ’5.90 = 13.89 of complex [Cu(EDTA)]^2− obtained from the previously reported equilibrium constants of EDTA and its Cu(II) complex.

[5] = Iron(II) complex formation, UV-vis spectrophotometric titrations (anaerobic); format: physicochemical; conditions: for pFe(II): –log[free Fe(II)] calculated at cFe = 1 μM, cL = 10 μM, pH = 7.40
Protocol: as §1

[6] = Zinc(II) complex formation, UV-vis spectrophotometric titrations; format: physicochemical; conditions: for pZn: calculated at cM = 1 μM, cL = 10 μM, pH = 7.40
[7] = T = 25.0 °C, I = 0.10 M (KCl), 30% (v/v) DMSO/H2O

| pFe(III)* [2] | logβ [Fe(III)L2]^+ [2, 7] | logβ [Fe(III)L]^2+ [2, 7] | pFe(III) [2] | E′ vs. NHE, copper(II)–ligand (1:1) systems [3] [V] | pCu [4] | logβ5.9′ [CuL]^+ [4] | logβ [CuL]^+ [4] | logβ [Fe(II)L2] [5, 7] | logβ [Fe(II)L]^+ [5, 7] | pFe(II) [5] | logβ [ZnL2] [6, 7] | logβ [ZnL]^+ [6, 7] | pZn [6] | Compound | impact of copper chelator TTM on anticancer activity [1] | also measured |
| --- | --- | --- | --- | --- | --- | --- | --- | --- | --- | --- | --- | --- | --- | --- | --- | --- |
| 11.1 | 32.77 ± 0.03 | 17.25 ± 0.02 | 19.2 | -0.24 | 14.7 | 12.23 ± 0.05 | 18.42 | 31.33 ± 0.09 | 17.62 ± 0.03 | 17.8 | 25.24 ± 0.08 | 13.02 ± 0.04 | 11.7 | CN(C)C(=S)NN=C1CCCc2cccnc21 (mixture of isomers) [COTI-NMe2, 2-(6,7-Dihydroquinolin-8(5H)-ylidene)-N^4,N^4-dimethylhydrazine-1-carbothioamide] | strong protective activity |  |
| 10.6 | 29.98 ± 0.06 | 18.02 ± 0.03 | 18.6 | -0.19 | 15.6 | 13.06 ± 0.02 | 18.19 | 30.63 ± 0.09 | 18.28 ± 0.06 | 19.3 | 23.23 ± 0.08 | 12.85 ± 0.02 | 11.9 | S=C(N/N=C1\CCCc2cccnc21)N1CCN(c2ccccn2)CC1 [COTI-2, 4-(pyridine-2-yl)-N-([(8E)-5,6,7,8-tetrahydroquinolin-8-ylidene]amino)piperazine-1-carbothioamide] | strong protective activity | logβ [Fe(III)LH]^3+ [2, 7]: 21.16 ± 0.03; free ligand in the presence of iron(III) ([2]; calculated distribution, 1 µM COTI-2, 2:1 ligand:iron(III), pH 7.4): 10–20%; logβ [Fe(II)L2H2]^2+ [5, 7]: 41.18 ± 0.06; logβ [Fe(II)L2H]^+ [5, 7]: 36.74 ± 0.09; logβ [Fe(II)LH]^2+ [5, 7]: 21.00 ± 0.03; logβ [ZnLH]^2+ [6, 7]: 18.54 ± 0.02; free ligand in the presence of zinc(II) ([6]; calculated distribution, 1 µM COTI-2, 2:1 ligand:zinc(II), pH 7.4): 10–20% |
| 9.9 | 32.20 ± 0.03 | 17.06 ± 0.02 | 18.0 | -0.22 | 15.0 | 12.56 ± 0.09 | 19.08 | 31.04 ± 0.03 | 18.66 ± 0.03 | 16.9 | 26.32 ± 0.09 | 12.94 ± 0.04 | 12.1 | CN(C(=S)N/N=C1\CCCc2cccnc21)C1CCCCC1 [COTI-NMeCy, N-Cyclohexyl-2-(6,7-dihydroquinolin-8(5H)-ylidene)-N^4-methylhydrazine-1-carbothioamide] | strong protective activity |  |
